pIC50: −log10 of the molar value. Like-named read-outs stand apart in the source and are kept apart here.

This assay addresses TNFα trimer (Homo sapiens, UniProt P01375). The assay can be described thus: TNFα FP Competitive Binding Assay. The settings on record: read-out: TNF IC50. As to the method:
TNFα FP Competitive Binding Assay
• 1. Assay Buffer: Prepare 1× Assay Buffer (Water with 47 mM HEPES, 47 mM NaCl, 0.9 mM EDTA, 0.0071% Triton X-100) by adding 25 mL of 1 M HEPES, 5 mL of 5 M NaCl, 1 mL of 0.5 M EDTA, and 375 μL of a 10% Triton X-100 stock to a fresh 500 mL bottle of water. • 2. Assay Mixture: Prepare fresh Assay Mixture containing 20 nM TNFα trimer (60 nM protein) and 1 nM 2′,7′-difluoro-3′,6′-dihydroxy-N-(2-(2-(2-((4-(isoquinolin-8-yl)-3-(4-(isoquinolin-8-yl)phenethoxy)benzyl)oxy)ethoxy)ethoxy)ethyl)-3-oxo-3H-spiro[isobenzofuran-1,9′-xanthene]-5-carboxamide probe in 1× Assay Buffer. Compound Plate Preparation Manual 12-Point 1:3 Dilution Plates: (384 Well Polypropylene Plates)
Top concentration of compounds, 10 mM in DMSO, dispensed in rows A-O in columns 1 and 13. Compounds are serially diluted 1:3 with DMSO in columns 2-12 or 14-24 using a 16-channel Matrix pipettor. Plates stored at −20° C.
Discovery Preps 12-Point 1:3 Dilution Plates: (384 Well Assay Plates)
Top concentration, 5 mM in DMSO, of compounds placed in rows A-O in columns 1 and 13. Compounds are serially diluted 1:3 with DMSO in columns 2-12 or 14-24. Compound solutions are dispensed into replicate assay plates at 410 nL per well. Plates stored at 4° C.
TNFα FP Competitive Binding Assay Protocol
• 1. Compound plates warmed to rt. • 2. Fresh Assay Mixture is prepared. • 3. Assay Mixture (20 μL) is dispensed each well of 384 assay plates using a Thermo Multidrop Combi or 16-channel Matrix pipettor. If Manual 12-point 1:3 Dilution Plates are to be tested, Assay Mix is dispensed into empty plates. Discovery Preps 12-point 1:3 Dilution Plates already contain 410 nL compound solution in DMSO. • 4. For Manual 12-point 1:3 Dilution Plates, 0.7 μL is manually transferred using a 16-channel Matrix pipettor to replicate assay plates containing 20 μL Assay Mixture for a final top compound concentration of 338 μM (3.4% DMSO). • 5. For Discovery Preps 12-point 1:3 Dilution Plates, 20 μL Assay Mixture added the 410 nL compound solution already in the plates yields a final top compound concentration of 100 μM (2.0% DMSO). • 6. Background subtraction controls are wells P1-P8 containing only Assay Buffer. The low % inhibition controls are wells P9-P16 containing only Assay Mix. The high % inhibition are wells P17-P24 containing only 1 nM 2′,7′-difluoro-3′,6′-dihydroxy-N-(2-(2-(2-((4-(isoquinolin-8-yl)-3-(4-(isoquinolin-8-yl)phenethoxy)benzyl)oxy)ethoxy)ethoxy)ethyl)-3-oxo-3H-spiro[isobenzofuran-1,9′-xanthene]-5-carboxamide probe in 1× Assay Buffer. • 7. Plates are incubated at rt for 18-24 h in 37° C. incubator (CO2 is off). • 8. Prior to reading the assay, the plates are placed in a dark cabinet to equilibrate at rt for one hour. • 9. Background-subtracted fluorescence polarization (mP) is measured using a PerkinElmer Envision plate reader. • 10. Raw data is entered into Assay Explorer and dose-response curves are generated using a variable slope curve. Supplies, Materials, and Reagents

The mark [1] stands for this setting: FP binding assay, 20 nM TNFα trimer, 1 nM OregonGreen488 probe.

Sequence of TNFα trimer (P01375 77-233 limits assumed): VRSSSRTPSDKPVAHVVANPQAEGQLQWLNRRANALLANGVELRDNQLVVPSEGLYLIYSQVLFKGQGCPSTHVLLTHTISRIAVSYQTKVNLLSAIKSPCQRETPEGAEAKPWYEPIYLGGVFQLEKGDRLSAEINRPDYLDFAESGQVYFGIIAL

Turning to `CC(=O)N1CCN(c2ncc(-c3ccc4c(=O)n(C)n(Cc5cc(Cn6ccc(=O)[nH]6)ccc5OC(F)F)c4c3)cn2)C[C@H]1C` [Example 101, (R)-6-(2-(4-Acetyl-3-methylpiperazin-1-yl)pyrimidin-5-yl)-1-(2-(difluoromethoxy)-5-((3-oxo-2,3-dihydro-H-pyrazol-1-yl)methyl)benzyl)-2-methyl-1,2-dihydro-3H-indazol-3-one], under setting [1], the pIC50 was 5.00 to 6.00.
Consider `C[C@@H]1C[C@H](O)CCN1c1ncc(-c2ccc3c(=O)n(C)n(Cc4ccccc4OC(F)F)c3c2)cn1` [Example 10.9], for which, under setting [1], the pIC50 is > 6.00.
For the molecule `Cn1c(=O)c2ccc(-c3cnc(N4CCOCC4)cn3)cc2n1Cc1ccccc1OC(F)F` [Example 10.2], the pIC50 under setting [1] was 5.00 to 6.00.
On the same count and under the same terms, under `CC(=O)N1CCN(c2ncc(-c3ccc4c(=O)n(C)n(Cc5ccccc5OC(F)F)c4c3)cn2)CC1` [Example 2.3] stands > 6.00; under `CC(=O)N1CCN(c2ncc(-c3ccc4c(=O)n(Cc5ccncc5)n(Cc5ccccc5OC(F)F)c4c3)cn2)C[C@H]1C` [Example 27.6], 5.00 to 6.00.
The same measure, in the same setting: to `Cn1c(=O)c2ccc(-c3cnc(N4CCN5C(=O)NC[C@H]5C4)nc3)cc2n1Cc1c(Cl)ccc2c1COC2` [Example 29.4] belongs > 6.00; to `Cc1ccc(OC(F)F)c(Cn2c3nc(-c4cnc(C(C)(C)O)nc4)c(F)cc3c(=O)n2C)c1` [Example 26.7], 5.00 to 6.00.
Regarding `Cc1cnc(C(F)(F)F)c(Cn2c3cc(-c4cnc(N5CCN6C(=O)NC[C@H]6C5)nc4)ccc3c(=O)n2C)c1` [Example 29.1], the pIC50 under setting [1] is 5.00 to 6.00.
For the molecule `Cn1c(=O)c2ccc(-c3cnc(N4CC(C(=O)O)C4)nc3)cc2n1Cc1ccccc1OC(F)F` [Example 2.13], under setting [1], the pIC50 is < 5.00.
On to `CC(=O)N1CCN(c2ncc(-c3ccc4c(=O)n(C)n(Cc5cc(C)ccc5OC(F)F)c4c3)cn2)[C@H](C)C1` [Example 20.4], for which the pIC50 under setting [1] was > 6.00.
`Cc1ccc(OC(F)F)c(Cn2c3cc(C4=CCC(C(C)(C)O)OC4)c(F)cc3c(=O)n2C)c1` (stereo not shown) [Example #132, 1-(2-(Difluoromethoxy)-5-methylbenzyl)-5-fluoro-6-(6-(2-hydroxypropan-2-yl)-5,6-dihydro-2H-pyran-3-yl)-2-methyl-1H-indazol-3(2H)-one]: the pIC50 under setting [1] is > 6.00.
The same measure, in the same setting: to `Cc1ccc(OC(F)F)c(Cn2c3cc(C4=CCC(C(C)O)OC4)c(F)cc3c(=O)n2C)c1` (stereo not shown) [Example #131, 1-(2-(Difluoromethoxy)-5-methylbenzyl)-5-fluoro-6-(6-(1-hydroxyethyl)-5,6-dihydro-2H-pyran-3-yl)-2-methyl-1H-indazol-3(2H)-one] belongs > 6.00.
In the case of `Cn1c(=O)c2ccc(-c3cnc(NCCO)nc3)cc2n1Cc1ccccc1OC(F)F` [Example 2.12], the pIC50 under setting [1] was 5.00 to 6.00.
`Cc1ccc(OC(F)F)c(Cn2c3cc(-c4cnn5c(C(C)(C)O)cnc5c4)ccc3c(=O)n2C)c1` [Example #135, 1-(2-(Difluoromethoxy)-5-methylbenzyl)-6-(3-(2-hydroxypropan-2-yl)imidazo[1,2-b]pyridazin-7-yl)-2-methyl-1H-indazol-3(2H)-one]: the pIC50 under setting [1] is > 6.00.
`Cn1c(=O)c2ccc(-c3cnc(NC4COC4)nc3)cc2n1Cc1ccccc1OC(F)F` [Example 2.10]: the pIC50 under setting [1] was 5.00 to 6.00.
As to `Cn1c(=O)c2ccc(-c3cnc(C(C)(C)O)nc3)cc2n1Cc1cc(NCc2cccnc2)ccc1Cl` [Example 53, 1-(2-Chloro-5-((pyridin-3-ylmethyl)amino)benzyl)-6-(2-(2-hydroxypropan-2-yl)pyrimidin-5-yl)-2-methyl-1H-indazol-3(2H)-one], under setting [1], the pIC50 is 5.00 to 6.00.
Consider `CC(c1ccccc1OC(F)F)n1c2cc(-c3cnc(N4CCOCC4)nc3)ccc2c(=O)n1C` (stereo not shown) [Example 1.5], for which the pIC50 under setting [1] was 5.00 to 6.00.
On the same count and under the same terms, under `Cc1ccc(OC(F)F)c(Cn2c3cc(-c4cnc(C(C)(C)N)nc4)ccc3c(=O)n2C)c1` [Example 120, 6-(2-(2-Aminopropan-2-yl)pyrimidin-5-yl)-1-(2-(difluoromethoxy)-5-methylbenzyl)-2-methyl-1H-indazol-3(2H)-one] stands > 6.00.
Regarding `C[C@@H]1CN(C(=O)CO)CCN1c1ncc(-c2ccc3c(=O)n(C)n(Cc4cc(CC#N)ccc4OC(F)F)c3c2)cn1` [Example 78, (R)-2-(4-(difluoromethoxy)-3-((6-(2-(4-(2-hydroxyacetyl)-2-methylpiperazin-1-yl)pyrimidin-5-yl)-2-methyl-3-oxo-2,3-dihydro-1H-indazol-1-yl)methyl)phenyl)acetonitrile], under setting [1], the negative logarithm of the IC50 (pIC50) is > 6.00.
In the case of `Cn1c(=O)c2ccc(-c3cnc(C(C)(C)O)nc3)cc2n1Cc1cc(NCc2cc[nH]n2)ccc1Cl` [Example 43], under setting [1], the pIC50 is 5.00 to 6.00.
`Cn1c(=O)c2ccc(-c3cnc(CN4CC(C(=O)O)C4)nc3)cc2n1Cc1ccccc1OC(F)F` [Example 4, 1-((5-(1-(2-(Difluoromethoxy)benzyl)-2-methyl-3-oxo-2,3-dihydro-1H-indazol-6-yl)pyrimidin-2-yl)methyl)azetidine-3-carboxylic acid]: the pIC50 under setting [1] was < 5.00.
On to `Cn1c(=O)c2ccc(-c3cnc(N4CCOCC4)nc3)cc2n1C(=O)c1ccccc1OC(F)F` [Example 1.7], for which the pIC50 under setting [1] was < 5.00.
Still for that read-out and setting: to `C[C@H](N)C(=O)OCc1ccc(OC(F)F)c(Cn2c3cc(-c4cnc(N5CCN6C(=O)OC[C@@H]6C5)nc4)ccc3c(=O)n2C)c1` [Example 21, (S)-4-(Difluoromethoxy)-3-((2-methyl-3-oxo-6-(2-((S)-3-oxotetrahydro-1H-oxazolo[3,4-a]pyrazin-7(3H)-yl)pyrimidin-5-yl)-2,3-dihydro-1H-indazol-1-yl)methyl)benzyl 2-aminopropanoate] belongs > 6.00; to `COCC(=O)N1CCN(c2ncc(-c3ccc4c(=O)n(C)n(Cc5cc(C)ccc5OC(F)F)c4c3)cn2)C[C@H]1C` [Example 21.1], > 6.00.
On to `C[C@@H](O)CNc1ccc(Cl)c(Cn2c3cc(-c4cnc(C(C)(C)O)nc4)ccc3c(=O)n2C)c1` [Example 30.2], for which the pIC50 is 5.00 to 6.00.
On to `COC(=O)NCc1ccc(OC(F)F)c(Cn2c3cc(-c4cnc(C(C)(C)O)nc4)ccc3c(=O)n2C)c1` [Example 26.3], for which, under setting [1], the pIC50 was 5.00 to 6.00.
Take `CN1CCCC(Nc2ccc(Cl)c(Cn3c4cc(-c5cnc(C(C)(C)O)nc5)ccc4c(=O)n3C)c2)C1=O` (stereo not shown) [Example 83, 1-(2-Chloro-5-((1-methyl-2-oxopiperidin-3-yl)amino)benzyl)-6-(2-(2-hydroxypropan-2-yl)pyrimidin-5-yl)-2-methyl-1H-indazol-3(2H)-one]: the pIC50 under setting [1] is 5.00 to 6.00.
Regarding `[2H]C([2H])([2H])n1c(=O)c2ccc(-c3cnc(N4CCN(C(C)=O)[C@H](C)C4)nc3)cc2n1Cc1cc(C)ccc1OC(F)F` [Example 63, (R)-6-(2-(4-Acetyl-3-methylpiperazin-1-yl)pyrimidin-5-yl)-1-(2-(difluoromethoxy)-5-methylbenzyl)-2-methyl-d3-1H-indazol-3(2H)-one], the pIC50 under setting [1] is > 6.00.
As to `Cc1ccc(OC(F)F)c(Cn2c3cc(-c4cnc(N5CCN(C(=O)CO)[C@H](C)C5)nc4)ccc3c(=O)n2C)c1` [Example 22.3], under setting [1], the pIC50 is > 6.00.
For the molecule `Cn1c(=O)c2cc(F)c(-c3cnc(C(C)(C)O)nc3)cc2n1Cc1cc(CC#N)ccc1OC(F)F` [Example 100, 2-(4-(Difluoromethoxy)-3-((5-fluoro-6-(2-(2-hydroxypropan-2-yl)pyrimidin-5-yl)-2-methyl-3-oxo-2,3-dihydro-1H-indazol-1-yl)methyl)phenyl)acetonitrile], the pIC50 under setting [1] was 5.00 to 6.00.
`COC(=O)N1CCN(c2ncc(-c3ccc4c(=O)n(C)n(Cc5cc(C)ccc5OC(F)F)c4c3)cn2)C[C@H]1C` [Example 23, (R)-Methyl 4-(5-(1-(2-(difluoromethoxy)-5-methylbenzyl)-2-methyl-3-oxo-2,3-dihydro-1H-indazol-6-yl)pyrimidin-2-yl)-2-methylpiperazine-1-carboxylate]: the pIC50 under setting [1] was > 6.00.

The values above are taken from US10160748B2 (AbbVie Inc., priority 2015, dated 2018).
